Measurements published in patent US20210038577A1, “THIOREDOXIN REDUCTASE INHIBITORS FOR USE IN THE TREATMENT OF CANCER” (Cinda Pharma AB, priority 2018, published 2021).

Tests used:
MDA-MB-231 cells = experiment: Alamar-Blue cell viability assay; assay type: cell-based, human; settings: Homo sapiens, MDA-MB-231, 72 hrs
Procedure: MDA-MB-231 cells were plated 2000 cells/well in 96-well black optical plates in the presence of 10% FBS media containing 25 nM selenite. The following day cells were treated with various concentrations of compounds (0.1% DMSO final) and incubated for 72 hrs. After the incubation Alamar Blue reagent was added to each well and incubated for additional 3 hrs. Fluorescence was read ex:530 nm/em:590 nm, and percent of viability was determined using DMSO vehicle and no cell (blank) controls.

MDA-MB-231 xenografts = experiment: MDA-MB-231 xenograft tumor growth in immunodeficient athymic nude mice; assay type: in vivo; settings: for TGI: 12 doses; for final tumor volumes versus vehicle (waterfall plot): end of experiment (22 days OT-1000, 25 days OT-1129)
Procedure: Athymic nude mice were inoculated orthotopically with 5×10^6 MDA-MB-231 breast cancer cells into the mammary fat pad, and randomized for treatment when tumors reached an average volume of 80-120 mm^3 (N=12 in each group). […] Xenograft tumor volume was assessed using caliper measurements for 22 days. Athymic nude mouse model is described by Richmond A, and Su Y., Disease Models & Mechanisms. 2008; 1(2-3):78-82.
Athymic nude mice were inoculated orthotopically with 5×10^6 MDA-MB-231 breast cancer cells into the mammary fat pad, and randomized for treatment when tumors reached an average volume of 80-120 mm^3 (N=12 in each group). […] Xenograft tumor volume was assessed using caliper measurements for 25 days. MDA-MB-231 Xenograft Tumor Growth in Immunodeficient Athymic Nude Mice Treated with OT-1096 or Vehicle Control. Athymic nude mice were inoculated orthotopically with 5×10^6 MDA-MB-231 breast cancer cells into the mammary fat pad and randomized for treatment when tumors reached an average volume of 80-120 mm^3 (N=12 in each group). Mice were treated with 10 mg/kg OT-1096 via i.v. injection or with vehicle i.v., once a day using a 5 day on two day off (5/2) dosing regimen for the duration of the experiment. Xenograft tumor volume was assessed using caliper measurements for 25 days. Data is represented as mean tumor volume±SEM. Statistical significance (p<0.05) was determined using a Two-way repeated measures ANOVA with Sidak's multiple comparison test. […] Relative Luminescence Flux in Primary 4T1-Luc2 Immunocompetent Tumors Implanted into the Mammary Fat Pad of BALB/C Mice and Treated with OT-1096 or Vehicle Control. Female BALB/c immunocompetent mice were implanted with 1×10^5 4T1-luc2 murine tumor cells into the mammary fat pad. Upon growth of the tumors between 60-90 mm^3 the animals were selected for imaging. Mice were randomized and enrolled for treatment based on imaging flux values. Mice were treated once daily with 5 mg/kg of either OT-1096 or vehicle control using a 5/2 (five days on, two days off) dosing protocol. Upon days 1, 8, and 15 whole body imaging was performed on the mice to follow tumor cell luminescence. Analysis consists of primary tumor luminescence in mice. Each mouse was normalized to its own baseline luminescence from day 1. […] Data is represented as mean±SEM. Statistical significance (p<0.05) was determined using a Mann-Whitney test. The relative luminescence flux for mice treated with OT-1096 was significant compared to vehicle at day 15. Primary Tumor Growth of TM00098 Patient Derived Xenografts-Triple Negative Breast Cancer in Immunocompetent Humanized NSG Mice (Hu-CD34-NSG) Treated with OT-1096 or Vehicle Control. Female NSG mice were implanted with human CD34+ hematopoietic stem cells from multiple donors and the level of human CD45+ cells were measured in the peripheral blood 12 weeks post engraftment. Mice with >25% human CD45+ cells in the peripheral blood were determined to have a humanized immune system (Hu-CD34-NSG™) mice and were enrolled into the study. The Hu-CD34-NSG mice were implanted with TM00098 patient-derived xenografts (PDX) subcutaneously on the right flank. The TM00098 PDX cancer cells originate from a primary tumor of a patient suffering from a grade 3 TNBC invasive ductal carcinoma. When the tumors reached a volume between 60-120 mm^3 mice were treated with either 10 mg/kg OT-1096 three times a week intravenously (donor 5243 n=5, donor 5252 n=7) or with a vehicle three times a week intravenously (donor 5243 n=3, donor 5252 n=2). In case of tail vein swelling when the test substance or vehicle could not be administered intravenously, Intraperitoneal injection was applied. Tumor volume was measured using a digital caliper two times a week for the duration of the study. Animals that reached a body condition score of ≤2, a body weight loss of ≥20% or a tumor volume >2000 mm^3 were euthanized before study terminus. Animals with ulcerated tumors were also euthanized before study terminus. […]

4T1 tumors = experiment: Intratumoral immune cell populations in engrafted 4T1 tumors in BALB/c mice (FACS); assay type: in vivo; settings: 1 mg/kg intratumorally bid for 5 days, day 6
Procedure: Intratumoral immune cell populations within engrafted 4T1 cells in BALB/c mice. 4T1 cells are a murine mammary carcinoma cell line. BALB/c mice are immunocompetent. 1×10^6 4T1 tumor cells in 0% Matrigel were implanted orthotopically into the mammary fat pad. Enrollment of the mice into the treatment arms commenced when the tumors reached an average volume between 175-200 mm^3. […] Tumor volumes were measured using a digital caliper on day 1, 3, and 6 of the study. On day 6 mice were euthanized and tumors were resected for FACs analysis. Populations of murine immune cells including CD45+, CD4+, CD8+, and Tregs were analyzed. CD45+ positive cells were analyzed as the percentage of live cells. CD4+, CD8+, and Tregs cells were analyzed as percentage of CD45+ positive cells.

recombinant TrxR = target: T1, recombinant TrxR (Rattus norvegicus, UniProt O89049); experiment: Sec-independent SecTRAP activity (Juglone assay); settings: for Juglone Act (% @ 100% DTNB inhibition): compound at the concentration that achieves 100% inhibition of TrxR in the DTNB assay
T1 sequence (O89049 1-499): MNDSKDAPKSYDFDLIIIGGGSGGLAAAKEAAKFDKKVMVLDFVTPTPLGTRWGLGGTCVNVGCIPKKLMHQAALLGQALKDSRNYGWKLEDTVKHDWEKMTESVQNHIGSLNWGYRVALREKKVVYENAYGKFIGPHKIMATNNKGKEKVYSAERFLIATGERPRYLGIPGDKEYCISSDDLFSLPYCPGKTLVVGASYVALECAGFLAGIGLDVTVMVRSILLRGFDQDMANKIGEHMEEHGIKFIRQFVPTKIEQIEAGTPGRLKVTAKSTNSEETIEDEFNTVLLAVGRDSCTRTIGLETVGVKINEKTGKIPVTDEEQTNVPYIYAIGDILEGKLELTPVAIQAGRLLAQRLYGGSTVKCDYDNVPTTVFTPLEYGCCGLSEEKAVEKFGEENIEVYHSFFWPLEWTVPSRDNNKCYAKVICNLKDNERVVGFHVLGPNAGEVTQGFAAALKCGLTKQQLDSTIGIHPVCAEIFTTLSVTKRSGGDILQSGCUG
Procedure: SecTRAP forming capabilities of compounds with TrxR was determined using the Juglone Assay. Compounds were incubated in the presence of recombinant TrxR and 250 μM NADPH for 15 minutes at concentrations fully inhibiting enzyme activity in the DTNB assay. 100 μM juglone was then added to each well and NADPH consumption was followed at OD340 to determine sustained reductive capacity at the N-terminus of TrxR (SecTRAP Activity). Activity was determined following the consumption of NADPH over time and normalized to DMSO only (Vehicle) and TrxR lacking (blank) controls.
Aliquots were used in a DTNB assay to determine inhibition of enzyme activity. […] Incubation samples were then added to a reaction buffer containing 250 μM NADPH and 100 μM juglone, whereupon NADPH consumption was followed at OD340 to determine sustained SecTRAP activity.
Higher % values for juglone activity (juglone reduction activity) in this assay are indicative of stronger prooxidant activity.

Compound | IC50 (MDA-MB-231 cells) [µM] | TGI (MDA-MB-231 xenografts; 25 mg/kg intraperitoneally, 25 days) [%] | CD8+ levels in tumors relative to no treatment controls (4T1 tumors) | ratio of CD8+ cells to Treg cells in tumours (4T1 tumors) | classification as SecTRAP forming agent (recombinant TrxR; DTNB assay inhibited, juglone activity retained) | N-terminal juglone reduction activity (recombinant TrxR; Iniparib at 1 mM compared with OT-1000 at 1 μM (FIG. 1B)) | tumor growth inhibition rate (TGI) (MDA-MB-231 xenografts; 10 mg/kg IV, 11 times over 22 days) [%] | final tumor volumes versus vehicle (waterfall plot) (MDA-MB-231 xenografts) | % TGI (MDA-MB-231 xenografts; 10 mg/kg IV, 5 day on two day off (5/2), 25 days) [%] | mean tumor volume compared to vehicle (MDA-MB-231 xenografts; 10 mg/kg i.v. 5/2, day 25, p<0.05) | Juglone Act (% @ 100% DTNB inhibition) (recombinant TrxR) [%] | TGI (MDA-MB-231 xenografts; 25 mg/kg intravenously, 25 days) [%]
NC(=O)c1ccc(I)c([N+](=O)[O-])c1 [Iniparib, 4-Iodo-3-nitrobenzamide, reference compound] | 54.4 | 9 | significantly increased | increases | SecTRAP forming compound | retained at a similar level to that obtained for OT-1000 | – | – | – | – | – | –
COc1ccc([N+](=O)[O-])c(S(=O)(=O)c2ccc(Cl)cc2)n1 [OT-1000, 2-((4-Chlorophenyl)sulfonyl)-6-methoxy-3-nitropyridine] | 3.53 | – | – | – | – | – | 37 | more frequently of lower size than vehicle-treated tumors | – | – | – | –
CCCCCCCCS(=O)(=O)c1nc(OC)ccc1[N+](=O)[O-] [OT-1096, 6-methoxy-3-nitro-2-(octylsulfonyl)pyridine] | – | – | significantly increased | increases | – | – | – | – | 19 | statistically significant | 86.96 | –
CCS(=O)(=O)c1nc(OC)ccc1[N+](=O)[O-] [OT-1129, 2-(ethylsulfonyl)-6-methoxy-3-nitropyridine] | – | – | – | – | – | – | – | more frequently of lower size than vehicle-treated tumors | – | – | 74.83 | 25
